Source: patent US20260217708A1, “FUSED BENZAZEPINE DERIVATIVES FOR USE IN THE TREATMENT OF CANCER AND EPILEPSY” (UCB BIOPHARMA SRL, priority 2023, published 2026)

How the values were obtained:
system Xc^− [1] = biological target: T1, system Xc^− (Homo sapiens, UniProt Q9UPY5); test: Cystine-induced glutamate release assay; assay type: cell-based; set-up: endogenous in cells; host or cells: H4 cells; details: H4 cells, sodium-free HEPES buffer, 50 μM L-Cystine, 2 hours, Amplex Red glutamate readout; for IC50: read-out: pIC50 Cystine-induced glutamate release assay (converted)
T1 sequence (Q9UPY5 1-501): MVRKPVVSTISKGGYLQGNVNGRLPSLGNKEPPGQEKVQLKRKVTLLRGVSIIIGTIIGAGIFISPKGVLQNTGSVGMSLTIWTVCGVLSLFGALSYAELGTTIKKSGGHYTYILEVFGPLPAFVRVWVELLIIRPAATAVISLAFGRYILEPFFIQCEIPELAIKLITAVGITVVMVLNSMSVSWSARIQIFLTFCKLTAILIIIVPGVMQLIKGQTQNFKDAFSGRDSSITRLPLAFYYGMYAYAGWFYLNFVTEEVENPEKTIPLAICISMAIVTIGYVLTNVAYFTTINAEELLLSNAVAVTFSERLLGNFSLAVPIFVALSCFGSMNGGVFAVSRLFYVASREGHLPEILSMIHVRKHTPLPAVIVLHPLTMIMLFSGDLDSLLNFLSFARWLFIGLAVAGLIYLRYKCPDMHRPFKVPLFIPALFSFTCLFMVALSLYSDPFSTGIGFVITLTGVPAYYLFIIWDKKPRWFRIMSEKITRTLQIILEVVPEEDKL
T1 sequence (P08195 1-529 partner): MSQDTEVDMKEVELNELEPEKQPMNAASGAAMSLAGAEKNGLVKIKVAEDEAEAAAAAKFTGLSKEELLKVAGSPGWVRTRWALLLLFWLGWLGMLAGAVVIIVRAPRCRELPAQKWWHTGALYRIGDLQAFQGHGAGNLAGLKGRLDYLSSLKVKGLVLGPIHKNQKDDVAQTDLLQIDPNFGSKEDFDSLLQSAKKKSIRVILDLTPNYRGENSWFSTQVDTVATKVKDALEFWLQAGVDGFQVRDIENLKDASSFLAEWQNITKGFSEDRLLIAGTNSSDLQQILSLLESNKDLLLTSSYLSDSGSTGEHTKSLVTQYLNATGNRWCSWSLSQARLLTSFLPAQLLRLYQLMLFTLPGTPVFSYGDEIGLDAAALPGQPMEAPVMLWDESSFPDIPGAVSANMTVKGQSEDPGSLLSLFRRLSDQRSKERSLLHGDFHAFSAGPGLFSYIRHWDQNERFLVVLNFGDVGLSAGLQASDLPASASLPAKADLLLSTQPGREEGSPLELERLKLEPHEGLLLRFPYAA
In short: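 H4 cells in sodium-free HEPES buffer (pH 7.4), 2 days after plating; glutamate release induced with 50 μM L-cystine plus compound (1% DMSO), 2 h at 37 °C. Supernatant glutamate measured by Amplex Red fluorescence; IC50/pIC50 derived between 1% DMSO and 50 μM erastin controls.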

system Xc^− [2] = biological target: T1, system Xc^−; test: [^14C]L-Cystine uptake assay; assay type: cell-based; set-up: endogenous in cells; host or cells: H4 cells; details: H4 cells, sodium-free HEPES buffer, 0.5 μM L-[14C]Cystine and 4.5 μM L-Cystine, 1 hour at 37° C.; for IC50: read-out: pIC50 [^14C] L-Cystine uptake assay (converted)
In short: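 H4 cells at 5×10^4 cells/well in sodium-free HEPES buffer were preincubated 15 min with compounds (1% DMSO). Uptake of 0.5 μM [14C]L-cystine plus 4.5 μM unlabelled L-cystine ran 1 hour at 37° C on scintillating plates. IC50 was set between 1% DMSO and 50 μM Erastin controls and expressed as pIC50.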

Work on `Cc1cc2c(c(F)n1)-c1cccnc1[C@@H](C)C(=O)N2CC(=O)Nc1ccc(C(F)(F)F)c(C)c1` [#137, 2-[(10R)-3-fluoro-5,10-dimethyl-9-oxo-4,8,12-triazatricyclo[9.4.0.0^2,7]pentadeca-1(11),2(7),3,5,12,14-hexaen-8-yl]-N-[3-methyl-4-(trifluoromethyl)phenyl]acetamide] yielded an IC50 (system Xc^− [1]) of 15.8 to 39.8 nM and an IC50 (system Xc^− [2]) of 15.8 to 39.8 nM.
In the case of `Cc1cc2c(cn1)-c1ncccc1CC(=O)N2CC(=O)Nc1ccc(C(F)(F)F)cc1` [#12, 2-(13-methyl-9-oxo-3,10,14-triazatricyclo[9.4.0.0^2,7]pentadeca-1(11),2(7),3,5,12,14-hexaen-10-yl)-N-[4-(trifluoromethyl)phenyl]acetamide], the IC50 (system Xc^− [1]) is reported as 100 to 501 nM and the IC50 (system Xc^− [2]) is reported as 100 to 501 nM.
`N#Cc1ccc2c(c1F)-c1cccnc1CC(=O)N2CC(=O)Nc1ccc(C(F)(F)F)cc1` [#54, 2-(10-cyano-11-fluoro-6-oxo-5H-pyrido[2,3-d][1]benzazepin-7-yl)-N-[4-(trifluoromethyl)-phenyl]acetamide] was tested, and the IC50 (system Xc^− [1]) was 100 to 501 nM and the IC50 (system Xc^− [2]) was 39.8 to 100 nM.
Compound `CC1C(=O)N(CC(=O)Nc2ccc(Cl)c(F)c2)c2cc(C#N)ccc2-c2cc(F)cnc21` (single isomer, unassigned) [#307, N-(4-chloro-3-fluoro-phenyl)-2-[9-cyano-2-fluoro-5-methyl-6-oxo-5H-pyrido[2,3-d][1]benzazepin-7-yl]acetamid] has an IC50 (system Xc^− [1]) of under 15.8 nM and an IC50 (system Xc^− [2]) of 15.8 to 39.8 nM.
For `Cc1cc2c(c(F)n1)-c1ncccc1C(C)C(=O)N2CC(=O)Nc1ccc(Cl)c(F)c1` (single isomer, unassigned) [#401, N-(4-chloro-3-fluoro-phenyl)-2-[15-fluoro-8,13-dimethyl-9-oxo-3,10,14-triazatricyclo[9.4.0.0^2,7]pentadeca-1(15),2,4,6,11,13-hexaen-10-yl]acetamide], the IC50 (system Xc^− [1]) was under 15.8 nM and the IC50 (system Xc^− [2]) was under 15.8 nM.
`Cc1cc2c(cn1)-c1ccc(Cl)cc1C(C)C(=O)N2CC(=O)Nc1ccc(C(F)F)cc1` (single isomer, unassigned) [#396, 2-[9-chloro-3,7-dimethyl-6-oxo-7H-pyrido[3,4-a][3]benzazenin-5-yl]-N-[4-(difluoromethyl)phenyl]acetamide] gave an IC50 (system Xc^− [1]) of 15.8 to 39.8 nM and an IC50 (system Xc^− [2]) of 15.8 to 39.8 nM.
Work on `Cc1cc2c(c(=O)n1C)-c1cccnc1C(C)C(=O)N2CC(=O)Nc1ccc(Cl)c(F)c1` (centres unmarked) [#254, N-(4-chloro-3-fluoro-phenyl)-2-(4,5,10-trimethyl-3,9-dioxo-4,8,12-triazatricyclo[9.4.0.0^2,7]pentadeca-1(15),2(7),5,11,13-pentaen-8-yl)acetamide] yielded an IC50 (system Xc^− [1]) of under 15.8 nM and an IC50 (system Xc^− [2]) of under 15.8 nM.
`Cc1cc2c(cn1)-c1ccc(Cl)cc1CC(=O)N2CC(=O)Nc1ccc(C(F)(F)F)cc1` [#44, 2-(9-chloro-3-methyl-6-oxo-7H-pyrido[4,3-d][3]benzazepin-5-yl)-N-[4-(trifluoromethyl)phenyl]acetamide] was tested, and the IC50 (system Xc^− [1]) was 39.8 to 100 nM and the IC50 (system Xc^− [2]) was 39.8 to 100 nM.
For `Cc1nccc2c1-c1ccccc1CC(=O)N2CC(=O)Nc1ccc(C(F)(F)F)cc1` [#28, 2-(1-methyl-6-oxo-7H-pyrido[4,3-d] [3]benzazepin-5-yl)-N-[4-(trifluoro-methyl)phenyl] acetamide], the IC50 (system Xc^− [1]) was 39.8 to 100 nM and the IC50 (system Xc^− [2]) was 39.8 to 100 nM.
Compound `Cc1cc2c(c(F)n1)-c1ncccc1CC(=O)N2CC(=O)Nc1ccc(Cl)c(F)c1` [#41, N-(4-chloro-3-fluoro-phenyl)-2-(15-fluoro-13-methyl-9-oxo-3,10,14-triazatricyclo [9.4.0.0^2,7]pentadeca-1(11),2(7),3,5,12,14-hexaen-10-yl)acetamide] has an IC50 (system Xc^− [1]) of 100 to 501 nM and an IC50 (system Xc^− [2]) of 100 to 501 nM.
With `Cc1cc2c(c(Cl)n1)-c1ccnnc1C(C)C(=O)N2CC(=O)Nc1ccc(Cl)c(F)c1` (single isomer, unassigned) [#258, 2-[3-chloro-5,10-dimethyl-9-oxo-4,8,12,13-tetrazatricyclo[9.4.0.0^2,7]pentadeca-1(15),2,4,6,11,13-hexaen-8-yl]-N-(4-chloro-3-fluoro-phenyl)acetamide] the IC50 (system Xc^− [1]) was under 15.8 nM and the IC50 (system Xc^− [2]) was under 15.8 nM.
`CC1C(=O)N(CC(=O)Nc2ccc(Cl)c(F)c2)c2cc(Cl)cc(F)c2-c2nccnc21` (single isomer, unassigned) [#414, 2-[9-chloro-11-fluoro-5-methyl-6-oxo-5H-pyrazino[2,3-d][1]benzazepin-7-yl]-N-(4-chloro-3-fluoro-phenyl)acetamide] was tested, and the IC50 (system Xc^− [1]) was 39.8 to 100 nM and the IC50 (system Xc^− [2]) was 15.8 to 39.8 nM.
Work on `Cc1ccc(NC(=O)CN2C(=O)C(C)c3ccccc3-c3c2cc(C)c(=O)n3C)cc1F` (centres unmarked) [#120, N-(3-fluoro-4-methyl-phenyl)-2-(1,3,7-trimethyl-2,6-dioxo-7H-pyrido[3,2-d][3]benzazepin-5-yl)acetamide] yielded an IC50 (system Xc^− [1]) of 15.8 to 39.8 nM and an IC50 (system Xc^− [2]) of under 15.8 nM.
In the case of `COc1ncc(F)c2c1-c1ccccc1C(C)C(=O)N2CC(=O)Nc1ccc(Cl)c(F)c1` (centres unmarked) [#400, N-(4-chloro-3-fluoro-phenyl)-2-(4-fluoro-1-methoxy-7-methyl-6-oxo-7H-pyrido[4,3-d][3]benzazepin-5-yl)acetamide], the IC50 (system Xc^− [1]) is reported as 39.8 to 100 nM and the IC50 (system Xc^− [2]) is reported as 100 to 501 nM.
With `Cc1cc2c(c(Cl)n1)-c1cncc(F)c1CC(=O)N2CC(=O)Nc1ccc(C(F)(F)F)cc1` [#160, 2-(3-chloro-12-fluoro-5-methyl-9-oxo-4,8,14-triazatricyclo[9.4.0.0^2,7]pentadeca-1(11),2(7),3,5,12,14-hexaen-8-yl)-N-[4-(trifluoromethyl)phenyl]acetamide] the IC50 (system Xc^− [1]) was 100 to 501 nM and the IC50 (system Xc^− [2]) was 15.8 to 39.8 nM.
In the case of `Cc1cc2c(c(O)n1)-c1cccnc1CC(=O)N2CC(=O)Nc1ccc(C(F)(F)F)cc1` [#76, 2-(3-hydroxy-5-methyl-9-oxo-4,8,12-triazatricyclo[9.4.0.0^2,7]pentadeca-1(11),2(7),3,5,12,14-hexaen-8-yl)-N-[4-(trifluoromethyl)phenyl]acetamide], the IC50 (system Xc^− [1]) is reported as 100 to 501 nM and the IC50 (system Xc^− [2]) is reported as 100 to 501 nM.
`CC1C(=O)N(CC(=O)Nc2ccc(Cl)c(F)c2)c2cc(N3CC(F)(F)C3)nc(F)c2-c2cccnc21` (single isomer, unassigned) [#268, N-(4-chloro-3-fluoro-phenyl)-2-[5-(3,3-difluoroazetidin-1-yl)-3-fluoro-10-methyl-9-oxo-4,8,12-triazatricyclo[9.4.0.0^2,7]pentadeca-1(15),2,4,6,11,13-hexaen-8-yl]acetamide] gave an IC50 (system Xc^− [1]) of under 15.8 nM and an IC50 (system Xc^− [2]) of under 15.8 nM.
Work on `Cc1cc2c(c(F)n1)-c1cccnc1[C@H](C)C(=O)N2CC(=O)Nc1ccc(C(F)(F)F)cc1` (single isomer, unassigned) [#191] yielded an IC50 (system Xc^− [1]) of 100 to 501 nM and an IC50 (system Xc^− [2]) of 39.8 to 100 nM.
In the case of `Cc1cc2c(c(Cl)n1)-c1ccccc1CC(=O)N2CC(=O)Nc1ccc(C(F)(F)F)cc1` (single isomer, unassigned) [#189, Atropisomer aR or aS of 2-(1-chloro-3-methyl-6-oxo-7H-pyrido[4,3-d][3]benzazepin-5-yl)-N-[4-(trifluoromethyl)phenyl]acetamide], the “pIC50 Cystine-induced glutamate release assay” value (system Xc^− [1]) is reported as “D (plC50 > about 7.80)” and the “pIC50 [^14C] L-Cystine uptake assay” value (system Xc^− [2]) is reported as “D (plC50 > about 7.80)”.
`CC1C(=O)N(CC(=O)Nc2ccc(C(F)F)cc2)c2cc(C#N)ccc2-c2cc(F)cnc21` (single isomer, unassigned) [#308, 2-[9-cyano-2-fluoro-5-methyl-6-oxo-5H-pyrido[2,3-d][1]benzazepin-7-yl]-N-[4-(difluoromethyl)phenyl]acetamide] was tested, and the IC50 (system Xc^− [1]) was under 15.8 nM and the IC50 (system Xc^− [2]) was 15.8 to 39.8 nM.
`Cc1cc2c(c(F)n1)-c1cccnc1[C@@H](C)C(=O)N2CC(=O)Nc1ccc(C(F)F)c(F)c1` (single isomer, unassigned) [#235] showed an IC50 (system Xc^− [1]) of under 15.8 nM and an IC50 (system Xc^− [2]) of under 15.8 nM.
For `CN1CCN(c2cc3c(cn2)-c2ccccc2CC(=O)N3CC(=O)Nc2ccc(C(F)(F)F)cc2)CC1=O` [#46, 2-[3-(4-methyl-3-oxo-piperazin-1-yl)-6-oxo-7H-pyrido[4,3-d][3]benzazepin-5-yl]-N-[4-(trifluoromethyl)phenyl]acetamide], the IC50 (system Xc^− [1]) was 39.8 to 100 nM and the IC50 (system Xc^− [2]) was 15.8 to 39.8 nM.
